This note sets out measurements from patent publication US7049313B2, “ATM inhibitors” (Kudos Pharmaceuticals Ltd., priority 2002, dated 2006).

Structures are written as SMILES.

The first assay concerns HIV-1 HXB2 wild type. In words: HIV-1 4-day replication assay, wild type strain (p24 antigen ELISA). The assay is classed as cell-based. To be noted: Human immunodeficiency virus 1, HXB2, 96 h; C8166 T-cells; 4-day replication; p24. The method, then:
(§1) HIV-1 4-day Replication Assays
(§2) C8166 T-cells were washed and infected with HIV-1 (strains HXB2wt and HXB2AZTres, RT amino acid changes 67N, 70R, 215F, 219Q) at low multiplicity of infection for one hour at room temperature. The cells were then washed and distributed (5×10^4 cells/well) in triplicate into the wells of 96-well cell culture plates containing different concentrations of inhibitors. The plates were then incubated at 37° C. for 4 days. The cell-free culture fluid was then harvested and assayed for levels of p24 viral antigen using a commercially available ELISA kit (Murex), according to the manufacturers' instructions. Cytotoxicity was evaluated by distributing (5×10^4 cells/well) uninfected C8166 T-cells into triplicate wells of 96-well cell culture plates containing different concentrations of inhibitor and incubating the plates at 37° C. After 4 days, 25 μl of XTT, which is metabolised by viable but not dead cells was added and the plates incubated for a further 3 hours at 37° C. Finally, the absorbance was read at a wavelength of 450 nm.
In general terms: ELISA stands for enzyme-linked immunosorbent assay.
One may read the IC50 as the concentration needed to halve the response being measured. The compound `Cc1cn([C@H]2C[C@H](N=[N+]=[N-])[C@@H](CO)O2)c(=O)[nH]c1=O` [AZT, 3′-azido-3′-deoxythymidine, reference compound] yielded a half-maximal inhibitory concentration (IC50) of 0.002 µM.

The target in a further assay is T1, ATM (Homo sapiens, UniProt Q13315).
T1 construct: ATM protein was immunoprecipitated from HeLa cell nuclear extract; endogenous in cells; host or cells: HeLa cell nuclear extract (immunoprecipitate)
T1 sequence (Q13315 whole entry): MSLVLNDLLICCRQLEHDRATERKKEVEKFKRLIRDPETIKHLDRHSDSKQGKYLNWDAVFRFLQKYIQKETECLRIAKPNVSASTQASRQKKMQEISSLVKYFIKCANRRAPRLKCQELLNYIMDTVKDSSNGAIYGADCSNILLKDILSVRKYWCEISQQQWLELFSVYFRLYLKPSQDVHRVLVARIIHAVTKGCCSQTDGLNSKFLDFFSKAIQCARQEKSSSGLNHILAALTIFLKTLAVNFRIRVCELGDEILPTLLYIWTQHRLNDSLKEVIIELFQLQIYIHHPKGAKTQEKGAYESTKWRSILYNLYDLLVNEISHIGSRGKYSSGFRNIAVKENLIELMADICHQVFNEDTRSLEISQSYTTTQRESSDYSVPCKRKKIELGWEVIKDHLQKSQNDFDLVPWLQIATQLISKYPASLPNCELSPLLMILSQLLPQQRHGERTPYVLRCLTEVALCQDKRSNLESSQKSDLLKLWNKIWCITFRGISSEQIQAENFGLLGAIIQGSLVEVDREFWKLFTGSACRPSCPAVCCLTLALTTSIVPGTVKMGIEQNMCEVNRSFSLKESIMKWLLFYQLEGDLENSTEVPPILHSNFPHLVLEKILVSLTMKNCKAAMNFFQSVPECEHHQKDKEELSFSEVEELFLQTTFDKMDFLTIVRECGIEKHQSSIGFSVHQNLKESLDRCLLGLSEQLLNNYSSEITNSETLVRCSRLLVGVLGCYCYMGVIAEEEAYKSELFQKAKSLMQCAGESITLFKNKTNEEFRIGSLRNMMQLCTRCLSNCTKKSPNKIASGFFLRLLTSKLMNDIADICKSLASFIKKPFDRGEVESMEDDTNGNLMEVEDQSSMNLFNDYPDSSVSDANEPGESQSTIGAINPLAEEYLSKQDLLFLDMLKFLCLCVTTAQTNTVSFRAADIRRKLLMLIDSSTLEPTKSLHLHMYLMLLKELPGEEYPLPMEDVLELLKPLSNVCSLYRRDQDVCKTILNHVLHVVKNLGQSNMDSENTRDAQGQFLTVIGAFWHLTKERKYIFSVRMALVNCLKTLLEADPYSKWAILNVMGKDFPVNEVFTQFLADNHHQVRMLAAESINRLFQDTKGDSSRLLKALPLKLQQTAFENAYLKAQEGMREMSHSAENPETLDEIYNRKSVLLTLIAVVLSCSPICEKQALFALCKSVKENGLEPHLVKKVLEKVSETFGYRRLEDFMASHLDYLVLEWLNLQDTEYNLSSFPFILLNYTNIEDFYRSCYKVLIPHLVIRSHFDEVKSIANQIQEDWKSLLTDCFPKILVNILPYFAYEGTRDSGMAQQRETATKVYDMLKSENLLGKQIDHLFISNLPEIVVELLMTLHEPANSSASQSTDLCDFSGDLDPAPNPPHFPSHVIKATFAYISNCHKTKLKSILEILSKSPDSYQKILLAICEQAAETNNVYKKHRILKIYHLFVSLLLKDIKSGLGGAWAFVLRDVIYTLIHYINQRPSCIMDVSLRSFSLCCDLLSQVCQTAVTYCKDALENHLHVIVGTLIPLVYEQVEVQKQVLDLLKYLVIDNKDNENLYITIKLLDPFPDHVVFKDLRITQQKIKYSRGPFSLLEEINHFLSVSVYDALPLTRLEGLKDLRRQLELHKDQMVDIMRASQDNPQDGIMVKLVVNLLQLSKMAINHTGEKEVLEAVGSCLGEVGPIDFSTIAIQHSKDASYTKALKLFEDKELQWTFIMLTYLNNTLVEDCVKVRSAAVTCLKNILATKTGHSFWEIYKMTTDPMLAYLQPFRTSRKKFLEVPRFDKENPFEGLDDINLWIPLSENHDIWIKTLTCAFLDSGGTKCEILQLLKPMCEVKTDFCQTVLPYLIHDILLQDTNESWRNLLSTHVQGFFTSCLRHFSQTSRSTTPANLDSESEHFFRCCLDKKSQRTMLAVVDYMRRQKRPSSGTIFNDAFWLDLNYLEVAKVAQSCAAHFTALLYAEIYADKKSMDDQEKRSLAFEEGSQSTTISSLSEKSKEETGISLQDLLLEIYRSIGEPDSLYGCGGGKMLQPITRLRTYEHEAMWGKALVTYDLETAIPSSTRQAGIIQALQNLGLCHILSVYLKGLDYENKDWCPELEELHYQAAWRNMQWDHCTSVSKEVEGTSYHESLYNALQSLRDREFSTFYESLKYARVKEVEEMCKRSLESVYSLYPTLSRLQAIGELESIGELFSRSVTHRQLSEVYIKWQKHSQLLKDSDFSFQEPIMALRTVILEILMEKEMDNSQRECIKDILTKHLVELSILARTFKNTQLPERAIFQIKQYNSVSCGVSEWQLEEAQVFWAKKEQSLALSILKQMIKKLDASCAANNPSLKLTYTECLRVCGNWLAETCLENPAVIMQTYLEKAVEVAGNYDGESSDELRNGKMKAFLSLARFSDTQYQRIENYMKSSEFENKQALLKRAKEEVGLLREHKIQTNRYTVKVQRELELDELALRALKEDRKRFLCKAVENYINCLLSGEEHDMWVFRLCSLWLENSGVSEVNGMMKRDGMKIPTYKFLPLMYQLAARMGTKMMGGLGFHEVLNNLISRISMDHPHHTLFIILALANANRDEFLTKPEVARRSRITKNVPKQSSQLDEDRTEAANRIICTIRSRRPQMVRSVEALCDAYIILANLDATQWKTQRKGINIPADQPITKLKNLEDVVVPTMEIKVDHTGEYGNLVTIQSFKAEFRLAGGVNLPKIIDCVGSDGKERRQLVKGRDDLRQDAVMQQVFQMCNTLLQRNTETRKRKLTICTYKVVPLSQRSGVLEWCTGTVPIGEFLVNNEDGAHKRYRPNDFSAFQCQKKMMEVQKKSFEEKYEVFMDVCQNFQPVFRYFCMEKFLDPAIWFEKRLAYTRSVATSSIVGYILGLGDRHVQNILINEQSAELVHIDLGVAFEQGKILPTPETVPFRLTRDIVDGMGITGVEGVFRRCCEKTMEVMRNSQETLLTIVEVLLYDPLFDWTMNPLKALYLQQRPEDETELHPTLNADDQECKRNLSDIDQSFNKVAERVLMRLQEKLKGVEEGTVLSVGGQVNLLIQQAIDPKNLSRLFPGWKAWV
The assay is described as follows: In vitro ATM inhibition assay (phosphorylation of GSTp53N66 on serine 15).
Conditions: not given
Format: biochemical. The method, then: In vitro ATM inhibition Assays
In order to assess the inhibitory action of the compounds against ATM in vitro, the following assay was used to determine IC50 values.
ATM protein was immunoprecipitated from HeLa cell nuclear extract using rabbit polyclonal anti-sera raised to the C-terminal ˜500 amino-acid residues of the human ATM protein. The immunoprecipitation was performed according to the methodology described by Banin, S. et al. (1998). 10 μl of immunoprecipitated ATM in Buffer C (50 mM Hepes, pH 7.4, 6 mM MgCl2, 150 mM NaCl, 0.1 mM sodium orthovanadate, 4 mM MnCl2, 0.1 mM dithiothreitol, 10% glycerol) was added to 32.5 μl of buffer C containing 1 μg of the ATM substrate GSTp53N66 in a V-bottomed 96 well polypropylene plate. The GSTp53N66 substrate is the amino terminal 66 amino acid residues of human wild type p53 fused to glutathione S-transferase. ATM phosphorylates p53 on the residue serine 15 (Banin, S. et al. (1998)). Varying concentrations of inhibitor were then added. […] After 10 minutes of incubation at 37° C., the reactions were initiated by the addition of 5 μl of 500 μM Na-ATP. After 1 hour with shaking at 37° C., 150 μl of phosphate buffered saline (PBS) was added to the reaction and the plate centrifuged at 1500 rpm for 10 minutes. 5 μl of the reaction was then transferred to a 96 well opaque white plate containing 45 μl of PBS to allow the GSTp53N66 substrate to bind to the plate wells. The plate was covered and incubated at room temperature for 1 hour with shaking before discarding the contents. The plate wells were washed twice by the addition of PBS prior to the addition of 3% (w/v) bovine serum albumin (BSA) in PBS. The plate was incubated at room temperature for 1 hour with shaking before discarding the contents and washing twice with PBS. To the wells, 50 μl of a 1:10,000 dilution of primary phosphoserine-15 antibody (Cell Signaling Technology, #9284L) in 3% BSA/PBS was added to detect the phosphorylation event on the serine 15 residue of p53 elicited by the ATM kinase. After 1 hour of incubation at room temperature with shaking, the wells were washed four times with PBS prior to the addition of an anti-rabbit HRP conjugated secondary antibody (Pierce, 31462) with shaking for 1 hour at room temperature. The wells were then washed four times with PBS before the addition of chemiluminescence reagent (NEN Renaissance, NEL105). The plate was then shaken briefly, covered with a transparent plate seal and transferred to a TopCount NXT for chemiluminescent counting. Counts per second, following a one second counting time, were recorded for each reaction.
The enzyme activity for each compound is then calculated using the following equation: […]
For the compound `CC(C)CNC(=O)c1ccc2c(c1)Sc1cccc(-c3cc(=O)cc(N4CCOCC4)o3)c1S2` [Compound 145], the IC50 is below 200 nM.
Same read-out and setting: to `COC(=O)C(=O)Nc1ccc2c(c1)Cc1cccc(-c3cc(=O)cc(N4CCOCC4)o3)c1S2` [Compound 34] belongs below 200 nM.
Same read-out and setting: the result for `COC(=O)CCCC(=O)Nc1ccc2c(c1)Cc1cccc(-c3cc(=O)cc(N4CCOCC4)o3)c1S2` [Compound 25] reads below 200 nM; that for `O=C(NCc1ccncc1)c1ccc2c(c1)Sc1cccc(-c3cc(=O)cc(N4CCOCC4)o3)c1S2` [Compound 172], below 200 nM; that for `CC(=O)OC(C(=O)Nc1ccc2c(c1)Cc1cccc(-c3cc(=O)cc(N4CCOCC4)o3)c1S2)c1ccccc1` (stereo not shown) [Compound 41], below 200 nM.
On the same count and under the same terms, the result for `O=c1cc(-c2ccc(OCCNCCO)c3c2Cc2ccccc2S3)oc(N2CCOCC2)c1` [Compound 93] reads below 200 nM; that for `O=C(CN(CCO)CCO)Nc1ccc2c(c1)Cc1cccc(-c3cc(=O)cc(N4CCOCC4)o3)c1S2` [Compound 54], below 200 nM; that for `N#Cc1ccc(C(=O)Nc2ccc(-c3cc(=O)cc(N4CCOCC4)o3)c3c2Cc2ccccc2S3)cc1` [Compound 113], below 200 nM.
In turn, `O=C(Nc1ccc2c(c1)Cc1cccc(-c3cc(=O)cc(N4CCOCC4)o3)c1S2)c1cccnc1` [Compound 26] registered a 50% inhibitory concentration (IC50) below 200 nM.
Take `O=C(c1ccc2c(c1)Sc1cccc(-c3cc(=O)cc(N4CCOCC4)o3)c1S2)N1CCCCCC1` [Compound 161]: the half-maximal inhibitory concentration (IC50) is below 200 nM.
With `COc1ccc(CNCC(=O)Nc2ccc3c(c2)Cc2cccc(-c4cc(=O)cc(N5CCOCC5)o4)c2S3)cc1` [Compound 63], the IC50 is below 200 nM.
As to `O=C(NC1CCCCC1)c1ccc2c(c1)Sc1cccc(-c3cc(=O)cc(N4CCOCC4)o3)c1S2` [Compound 151], the 50% inhibitory concentration (IC50) was below 200 nM.
On the same count and under the same terms, to `O=C(NCC(F)(F)F)c1ccc2c(c1)Sc1cccc(-c3cc(=O)cc(N4CCOCC4)o3)c1S2` [Compound 148] belongs below 200 nM.
The same measure, in the same setting: the result for `O=C(Nc1ccc2c(c1)Cc1cccc(-c3cc(=O)cc(N4CCOCC4)o3)c1S2)c1cccs1` [Compound 30] reads below 200 nM.
In turn, `Cc1nnsc1C(=O)Nc1ccc(-c2cc(=O)cc(N3CCOCC3)o2)c2c1Cc1ccccc1S2` [Compound 111] registered an IC50 below 200 nM.
Compound `CC(C)NC(=O)c1ccc2c(c1)Sc1cccc(-c3cc(=O)cc(N4CCOCC4)o3)c1S2` [Compound 146] showed a concentration for half-maximal inhibition (IC50) below 200 nM.
`COCCN(CCOC)CC(=O)Nc1ccc2c(c1)Cc1cccc(-c3cc(=O)cc(N4CCOCC4)o3)c1S2` [Compound 55] had an IC50 below 200 nM.
`S=c1cc(-c2cccc3c2Sc2ccccc2S3)oc(N2CCOCC2)c1` [Compound 18, 2-Thianthren-1-yl-6-morpholin-4-yl-pyran-4-thione]: the concentration for half-maximal inhibition (IC50) is below 200 nM.
Same read-out and setting: the result for `O=C(NC1CCCC1)c1ccc2c(c1)Sc1cccc(-c3cc(=O)cc(N4CCOCC4)o3)c1S2` [Compound 155] reads below 200 nM; that for `O=C(c1ccc2c(c1)Sc1cccc(-c3cc(=O)cc(N4CCOCC4)o3)c1S2)N1CCCC1` [Compound 156], below 200 nM.
In turn, `O=C(CCNCCO)Nc1ccc2c(c1)Cc1cccc(-c3cc(=O)cc(N4CCOCC4)o3)c1S2` [Compound 74] showed an IC50 below 200 nM.
Same read-out and setting: to `NCCNCCC(=O)Nc1ccc2c(c1)Cc1cccc(-c3cc(=O)cc(N4CCOCC4)o3)c1S2` [Compound 75] belongs below 200 nM.
In the case of `COCC(=O)CC(=O)Nc1ccc(-c2cc(=O)cc(N3CCOCC3)o2)c2c1Cc1ccccc1S2` [Compound 124], the IC50 was below 200 nM.
For `O=C(NC1CCC1)c1ccc2c(c1)Sc1cccc(-c3cc(=O)cc(N4CCOCC4)o3)c1S2` [Compound 153], the IC50 was below 200 nM.
The compound `COC(=O)C(=O)Nc1ccc(-c2cc(=O)cc(N3CCOCC3)o2)c2c1Cc1ccccc1S2` [Compound 116] returned an IC50 below 200 nM.
`Cc1ccoc1C(=O)Nc1ccc(-c2cc(=O)cc(N3CCOCC3)o2)c2c1Cc1ccccc1S2` [Compound 129] gave an IC50 below 200 nM.
For `O=C(c1ccc2c(c1)Sc1cccc(-c3cc(=O)cc(N4CCOCC4)o3)c1S2)N1CCOCC1` [Compound 160], the 50% inhibitory concentration (IC50) was below 200 nM.
In turn, `O=C(NCCc1cnc[nH]1)c1ccc2c(c1)Sc1cccc(-c3cc(=O)cc(N4CCOCC4)o3)c1S2` [Compound 176] came in with a half-inhibitory concentration (IC50) below 200 nM.
On the same count and under the same terms, to `CC(C)(C)OC(=O)Nc1ccc2c(c1)Cc1cccc(-c3cc(=O)cc(N4CCOCC4)o3)c1S2` [Compound 19, [5-(6-Morpholin-4-yl-4-oxo-4H-pyran-2-yl)-9H-thioxanthen-2-yl]-carbamic acid tert-butyl ester] belongs below 200 nM; to `O=C(CSc1ncn[nH]1)Nc1ccc2c(c1)Cc1cccc(-c3cc(=O)cc(N4CCOCC4)o3)c1S2` [Compound 64], below 200 nM.
On the same count and under the same terms, the result for `CCCNC(=O)c1ccc2c(c1)Sc1cccc(-c3cc(=O)cc(N4CCOCC4)o3)c1S2` [Compound 144] reads below 200 nM.
The same measure, in the same setting: to `O=C(NCCN1CCOCC1)c1ccc2c(c1)Sc1cccc(-c3cc(=O)cc(N4CCOCC4)o3)c1S2` [Compound 177] belongs below 200 nM.
Regarding `CN1CCCC1CCNC(=O)c1ccc2c(c1)Sc1cccc(-c3cc(=O)cc(N4CCOCC4)o3)c1S2` (stereo not shown) [Compound 168], the IC50 was below 200 nM.
Regarding `CCNC(=O)c1ccc2c(c1)Sc1cccc(-c3cc(=O)cc(N4CCOCC4)o3)c1S2` [Compound 142], the IC50 is below 200 nM.
The same measure, in the same setting: the result for `O=C(CCN1CCCCCC1)Nc1ccc2c(c1)Cc1cccc(-c3cc(=O)cc(N4CCOCC4)o3)c1S2` [Compound 79] reads below 200 nM.

Another assay has as its system HIV-1 HXB2 AZT resistant. The assay is described as follows: microbe, parasite or virus in culture. To be noted: Human immunodeficiency virus 1, HXB2, C8166, 96 h, read-out: HIV-1 HXB2 (IC50 μM) AZT resistant. Format: cell-based. The method, then: as §1, §2
As for `Cc1cn([C@H]2C[C@H](N=[N+]=[N-])[C@@H](CO)O2)c(=O)[nH]c1=O` [AZT, 3′-azido-3′-deoxythymidine, reference compound], the IC50 was 0.05 µM.
